# Test results: PubChem BioAssay AID2060609 (Molecular Pharmacology Branch, DTP, NCI, 2025)
# Values joined by “and” are separate entries in the source; they are usually repeats but may differ in a detail not shown here. Identical values can stand only once.
# System: 855422-203-R-J1-PDC complex spheroids, viability
# Test: Anticancer human tumor 855422-203-R-J1-PDC patient-derived bladder carcinoma cell line growth inhibition [CLK]
# Conditions: for viability, T/C: stronger effect = lower value
# Description: A high-throughput screen of multi-cell type tumor spheroids was designed to identify active combinations of […] and targeted small molecules. Complex spheroids include a stromal component modeled by human endothelial cells (HUVEC) and fibroblasts modeled by human mesenchymal stem cells (MSCs). The concentration ranges selected for each drug and investigational agent were based upon clinically achievable concentrations if the clinical Cmax of the agent was known.
# Compounds. The drugs and investigational agents: cirtuvivint (SM08502; NSC835563), CC-671 (NSC850746), vemurafenib (NSC761431), tapotoclax (NSC804041), sotorasib (NSC818433), adagrasib (NSC831453), MRTX-1133 (NSC836407), BAY2416964 (NSC825713), copanlisib (NSC816437), inavolisib (NSC800729), abemaciclib (NSC768073), osimertinib (NSC779217), entinostat (NSC756642), eltanexor (KPT-8602, NSC794443), venetoclax (NSC766270), ceralasertib (NSC777638), bortezomib (NSC756655), olaparib (NSC753686), talazoparib (NSC767125), alisertib (NSC759677), peposertib (NSC802822), gemcitabine (NSC613327), 5-fluorouracil (NSC19893), SN-38 (NSC673596), oxaliplatin (NSC266046), paclitaxel (NSC125973), and doxorubicin (NSC123127), were obtained from the National Cancer Institute (NCI) Developmental Therapeutics Program Chemical Repository. The FDA-approved anticancer drug set is available from the Developmental Therapeutics Program at https://dtp.cancer.gov/organization/dscb/obtaining/available plates.htm. […] The stock solutions were prepared in dimethyl sulfoxide (DMSO, Sigma-Aldrich, St. Louis, MO, cat. D2650), except for the platinum complexes which were prepared in saline (Quality Biological, Gaithersburg, MD, cat. 114-055-101), at 800-fold the tested concentration and stored at -70 degrees C prior to their use. All drugs and investigational agents were tested over a range starting from a high concentration at or near the clinical Cmax and decreasing in half-log increments. If the clinical Cmax for an agent had not been determined, the highest concentration tested was 10 microM.
# Cell Culture. All cells were maintained in an incubator at 37 degrees C and 5% CO2 with 95% humidity. The PDC lines were cultured according to standard operating procedures established by the NCI PDMR. Briefly, all PDCs were thawed and cultured in Matrigel-coated flasks prepared with a working solution of 1X Ham's F-12 nutrient mix, without supplementation (Invitrogen, Waltham, MA, cat. 11765054), 100 U/mL penicillin-streptomycin (Invitrogen, cat. 15140122), and 2.5% Matrigel (Corning Inc., Corning, NY, cat. 354248) for the first three passages. The 947758-054-R-J2-PDC line was cultured in 6B/Colon 1A media, which includes advanced DMEM/F-12 (Thermo Fisher Scientific, cat. 12634028), 10 mM HEPES (Thermo Fisher Scientific, cat. 15630080), 1X GlutaMAX supplement (Thermo Fisher Scientific, cat. 35050061), 0.1 mg/mL primocin (InvivoGen, cat. ant-pm-2), 10% defined fetal bovine serum, heat inactivated (HyClone Laboratories Inc., cat. SH30070.03HI), 1.25 mM N-Acetyl-L-cysteine (Sigma-Aldrich, cat. A9165), 10 mM nicotinamide (Sigma-Aldrich, cat. N0636), 1X B-27 supplement (Thermo Fisher Scientific, cat. 17504044), 1X N-2 supplement (Thermo Fisher Scientific, cat. 17502048), and 10 microM Y-27632 dihydrochloride (Tocris Bioscience, cat. 1254). The 876862-298-R-J1-PDC was cultured in 6E media, which includes all 6B/Colon 1A media components plus 50% L-WRN conditioned media (ATCC, cat. CRL-3276), 50 ng/mL recombinant human EGF recombinant protein (hEGF; Thermo Fisher Scientific, cat. PHG0311), 10 ng/mL recombinant human fibroblast growth factor 10 (hGFG-10; PeproTech, cat. 100-26), 1 ng/mL recombinant human fibroblast growth factor 2 (hFGF-2; PeproTech, cat. 100-18B), and 1 µM prostaglandin E2 (PGE2; Tocris, cat. 2296). The 227483-062-R1-J1-PDC line was cultured in Panc media, containing all 6E components except hFGF-2, with the addition of 500 nM SB-431542 (Selleckchem, cat. S1067) and 10 nM gastrin (Tocris, cat. 3006). […]
# [1] = curve of first compound, second compound 0.0316 µM
# [2] = curve of first compound, second compound 0.1 µM
# [3] = curve of first compound, second compound 0.316 µM
# [4] = curve of first compound, second compound 1 µM
# [5] = curve of first compound, second compound 3.16 µM
# [6] = curve of first compound, second compound 10 µM
# 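Also: spheroids exposed to drugs for seven days before readout.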
# 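For viability, T/C in this document: 100% = DMSO vehicle control wells.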
smiles,measurement,setting,value
CC(=O)O[C@H]1C(=O)[C@@]2(C)[C@H]([C@H](OC(=O)c3ccccc3)[C@]3(O)C[C@H](OC(=O)[C@H](O)[C@@H](NC(=O)c4ccccc4)c4ccccc4)C(C)=C1C3(C)C)[C@]1(OC(C)=O)CO[C@@H]1C[C@@H]2O + CNC(=O)c1ccc(Nc2nc(OC3CCCC3)c3c(-c4ccc5nc(C)oc5c4)c[nH]c3n2)c(OC)c1,IC50,[1],< 31.6 nM
same,IC50,[2],< 31.6 nM
same,IC50,[3],< 31.6 nM
same,IC50,[4],< 31.6 nM
same,IC50,[5],< 31.6 nM
same,IC50,[6],< 31.6 nM
same,"viability, T/C","second compound 0.0316 µM, first compound 0.0316 µM",8.98%
same,"viability, T/C","second compound 0.0316 µM, first compound 0.1 µM",6.61%
same,"viability, T/C","second compound 0.0316 µM, first compound 0.316 µM",7.27%
same,"viability, T/C","second compound 0.0316 µM, first compound 1 µM",7.58%
same,"viability, T/C","second compound 0.0316 µM, first compound 3.16 µM",8.71%
same,"viability, T/C","second compound 0.0316 µM, first compound 10 µM",11.3%
same,"viability, T/C","second compound 0.1 µM, first compound 0.0316 µM",16.5%
same,"viability, T/C","second compound 0.1 µM, first compound 0.1 µM",11.2%
same,"viability, T/C","second compound 0.1 µM, first compound 0.316 µM",13.8%
same,"viability, T/C","second compound 0.1 µM, first compound 1 µM",11.9%
same,"viability, T/C","second compound 0.1 µM, first compound 3.16 µM",15%
same,"viability, T/C","second compound 0.1 µM, first compound 10 µM",25.5%
same,"viability, T/C","second compound 0.316 µM, first compound 0.0316 µM",30.5%
same,"viability, T/C","second compound 0.316 µM, first compound 0.1 µM",28.8%
same,"viability, T/C","second compound 0.316 µM, first compound 0.316 µM",29.2%
same,"viability, T/C","second compound 0.316 µM, first compound 1 µM",31.9%
same,"viability, T/C","second compound 0.316 µM, first compound 3.16 µM",34.4%
same,"viability, T/C","second compound 0.316 µM, first compound 10 µM",31.5%
same,"viability, T/C","second compound 1 µM, first compound 0.0316 µM",32%
same,"viability, T/C","second compound 1 µM, first compound 0.1 µM",25.3%
same,"viability, T/C","second compound 1 µM, first compound 0.316 µM",28.1%
same,"viability, T/C","second compound 1 µM, first compound 1 µM",35.5%
same,"viability, T/C","second compound 1 µM, first compound 3.16 µM",36.5%
same,"viability, T/C","second compound 1 µM, first compound 10 µM",27%
same,"viability, T/C","second compound 3.16 µM, first compound 0.0316 µM",28.6%
same,"viability, T/C","second compound 3.16 µM, first compound 0.1 µM",28.3%
same,"viability, T/C","second compound 3.16 µM, first compound 0.316 µM",21.7%
same,"viability, T/C","second compound 3.16 µM, first compound 1 µM",31.7%
same,"viability, T/C","second compound 3.16 µM, first compound 3.16 µM",31.8%
same,"viability, T/C","second compound 3.16 µM, first compound 10 µM",24.2%
same,"viability, T/C","second compound 10 µM, first compound 0.0316 µM",23.4%
same,"viability, T/C","second compound 10 µM, first compound 0.1 µM",33.6%
same,"viability, T/C","second compound 10 µM, first compound 0.316 µM",25.5%
same,"viability, T/C","second compound 10 µM, first compound 1 µM",24.9%
same,"viability, T/C","second compound 10 µM, first compound 3.16 µM",31.4%
same,"viability, T/C","second compound 10 µM, first compound 10 µM",26.3%
C=CC(=O)Nc1cc(Nc2nccc(-c3cn(C)c4ccccc34)n2)c(OC)cc1N(C)CCN(C)C + CNC(=O)c1ccc(Nc2nc(OC3CCCC3)c3c(-c4ccc5nc(C)oc5c4)c[nH]c3n2)c(OC)c1,IC50,[1],> 300 nM
same,IC50,[2],1.17 nM
same,IC50,[3],< 0.949 nM
same,IC50,[4],< 0.949 nM
same,IC50,[5],< 0.949 nM
same,IC50,[6],< 0.949 nM
same,"viability, T/C","second compound 0.0316 µM, first compound 0.000949 µM",108%
same,"viability, T/C","second compound 0.0316 µM, first compound 0.003 µM",112%
same,"viability, T/C","second compound 0.0316 µM, first compound 0.00949 µM",109%
same,"viability, T/C","second compound 0.0316 µM, first compound 0.03 µM",97.1%
same,"viability, T/C","second compound 0.0316 µM, first compound 0.0949 µM",98.8%
same,"viability, T/C","second compound 0.0316 µM, first compound 0.3 µM",76.3%
same,"viability, T/C","second compound 0.1 µM, first compound 0.000949 µM",53.6%
same,"viability, T/C","second compound 0.1 µM, first compound 0.003 µM",33.9%
same,"viability, T/C","second compound 0.1 µM, first compound 0.00949 µM",29.3%
same,"viability, T/C","second compound 0.1 µM, first compound 0.03 µM",29.2%
same,"viability, T/C","second compound 0.1 µM, first compound 0.0949 µM",28.6%
same,"viability, T/C","second compound 0.1 µM, first compound 0.3 µM",22.4%
same,"viability, T/C","second compound 0.316 µM, first compound 0.000949 µM",21.3%
same,"viability, T/C","second compound 0.316 µM, first compound 0.003 µM",22.4%
same,"viability, T/C","second compound 0.316 µM, first compound 0.00949 µM",19.1%
same,"viability, T/C","second compound 0.316 µM, first compound 0.03 µM",21.8%
same,"viability, T/C","second compound 0.316 µM, first compound 0.0949 µM",24%
same,"viability, T/C","second compound 0.316 µM, first compound 0.3 µM",20.1%
same,"viability, T/C","second compound 1 µM, first compound 0.000949 µM",19.4%
same,"viability, T/C","second compound 1 µM, first compound 0.003 µM",21%
same,"viability, T/C","second compound 1 µM, first compound 0.00949 µM",27.3%
same,"viability, T/C","second compound 1 µM, first compound 0.03 µM",23.5%
same,"viability, T/C","second compound 1 µM, first compound 0.0949 µM",22%
same,"viability, T/C","second compound 1 µM, first compound 0.3 µM",16.2%
same,"viability, T/C","second compound 3.16 µM, first compound 0.000949 µM",25.8%
same,"viability, T/C","second compound 3.16 µM, first compound 0.003 µM",23.1%
same,"viability, T/C","second compound 3.16 µM, first compound 0.00949 µM",20.8%
same,"viability, T/C","second compound 3.16 µM, first compound 0.03 µM",21.9%
same,"viability, T/C","second compound 3.16 µM, first compound 0.0949 µM",21.9%
same,"viability, T/C","second compound 3.16 µM, first compound 0.3 µM",16.5%
same,"viability, T/C","second compound 10 µM, first compound 0.000949 µM",19.7%
same,"viability, T/C","second compound 10 µM, first compound 0.003 µM",21.6%
same,"viability, T/C","second compound 10 µM, first compound 0.00949 µM",18.3%
same,"viability, T/C","second compound 10 µM, first compound 0.03 µM",19.1%
same,"viability, T/C","second compound 10 µM, first compound 0.0949 µM",23.3%
same,"viability, T/C","second compound 10 µM, first compound 0.3 µM",21.9%
O=c1[nH]cc(F)c(=O)[nH]1,"viability, T/C",compound 0.0316 µM,109% and 162%
same,"viability, T/C",compound 0.1 µM,103% and 123%
same,"viability, T/C",compound 0.316 µM,86.9% and 104%
same,"viability, T/C",compound 1 µM,60.5% and 74.4%
same,"viability, T/C",compound 3.16 µM,51.7% and 56%
same,"viability, T/C",compound 10 µM,40% and 45.8%
same,IC50,curve of compound,2690 nM and 6240 nM
